The values that follow come from the METLIN SMRT retention time set (Domingo-Almenara et al. 2019).

The data set can be described thus: gradient 5% acetonitrile 3 min, to 50% in 2 min, to 85% in 15 min, held 3 min, 100 µL/min. The note with it: column: Zorbax Extend-C18 2.1 x 50 mm; eluents: water / acetonitrile, 0.1% formic acid. In a few lines:
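In both positive and negative ionization mode, a quadrupole time-of-flight mass spectrometer coupled to HPLC analyzed pure standards run in mixtures of ~100 molecules. The Zorbax Extend-C18 column (2.1 × 50 mm, 1.8 μm) was operated at 100 μL/min with water and acetonitrile, each containing 0.1% formic acid. The dead volume was 40 μL and the dwell volume 900 μL. Retention time came from adduct peaks that were computationally picked and individually inspected by hand.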
Compound `CC(C)n1cnc(S(=O)(=O)N2CCC(C(=O)NCCC3=CCCCC3)CC2)c1` had an RP-LC retention time of 804 s.
In the case of `CCn1c(=O)sc2cc(S(=O)(=O)N3CCC(C(=O)NC4CCC(C)CC4)CC3)ccc21` (centres undefined) it was 967 s; in that of `COc1ccc(Cl)cc1NC(=O)C1CCN(C(=O)c2cccn2-c2cccnc2)CC1`, 784 s; in that of `O=C(C1CCC1)N1CCCC(OCc2nc(-c3ccncc3)no2)C1` (centres undefined), 713 s.
The value for `C=CCn1c(=O)c2ccccc2n(Cc2nc(-c3ccc(Cl)cc3)no2)c1=O` was 1130 s; that for `Cc1cc(Cl)ccc1S(=O)(=O)N1CCN(C2CCN(Cc3ccccn3)C2=O)CC1` (centres undefined) was 608 s.
The compound `CCn1ccc2oc(C)c(C(=O)N3CCN(c4ccc(OC)cc4)CC3)c2c1=O` had an RP-LC retention time of 682 s.
The value for `CN(C)c1cccc(/C=C(\C#N)c2ccccc2)c1` was 1100 s; that for `Cc1cc(-c2nnc(C3CC3)o2)c(C)n1CC(=O)NCc1ccc(F)cc1Cl` was 840 s; that for `Cc1nc(-c2cn(C)c3ncccc23)sc1C(=O)Nc1ccc(Cl)cc1F` was 975 s.
In the case of `Cc1ccc(-n2ncc3c(=O)n(Cc4nc(-c5ccc(OC(C)C)cc5)no4)cnc32)cc1` it was 1200 s; in that of `COc1cccc(-c2cc(N3CCN(C(=O)Nc4ccc5c(c4)OCCO5)CC3)ncn2)c1`, 660 s.
`O=C(CCc1c(-c2ccccc2)nc2ccccn12)Nc1ccccc1Cl` gave an RP-LC retention time of 668 s.
In the case of `O=C(Cc1nnc(-c2ccc3ncccc3c2)o1)NCc1ccc(F)cc1` it was 677 s; in that of `CCCC(=O)N1CCCn2nc(-c3cccnc3)cc2C1`, 577 s; in that of `CCCn1cc(CCNC(=O)Nc2cc(Cl)ccc2Cl)c2cccnc21`, 963 s.
In the case of `CCOc1ccccc1-n1ccn(Cc2nc(-c3ccccc3)no2)c(=O)c1=O` it was 848 s.
The value for `Cc1ccc2c(Nc3ccc4c(c3)OCCO4)c(C(=O)N3CCCCC3C)cnc2n1` (centres undefined) was 623 s; that for `CCCCNC(=O)CCc1c(C)n(C)c2nc(-c3ccccc3)nn2c1=O` was 706 s; that for `COc1ccc(-c2nc3ccc(C)cn3c2Nc2ccc(Cl)cc2)cc1` was 782 s.
Compound `COC(=O)c1ccccc1NC(=O)CC1CCCCN1S(=O)(=O)c1ccccc1` (centres undefined) registered an RP-LC retention time of 968 s.
For `COc1ccc(-c2cn3ccn(-c4cc(C)cc(C)c4)c(=O)c3n2)cc1`, the RP-LC retention time stood at 874 s.
The value for `COC(=O)c1cc(C2CC2)nc2c1c(=O)n(Cc1ccc(F)cc1)c(=O)n2C` was 1090 s.
The value for `CCc1nc(-c2cn(Cc3ccc(F)cc3)nn2)no1` was 822 s.
In the case of `COc1ccc(-c2ncc3c(n2)CCN(S(=O)(=O)c2ccc(OC)c(Cl)c2)C3)cc1` it was 1080 s.
Compound `CCN(Cc1ccccc1)S(=O)(=O)c1c(C)nn(-c2ccc(-c3ccccc3)nn2)c1C` registered an RP-LC retention time of 1220 s.
In the case of `Cn1nc(C(=O)N2CCCC(C(=O)NC3CC3)C2)c2c1CCN(C(=O)CCc1ccccc1)C2` (centres undefined) it was 671 s; in that of `CC(C)NC(=O)N1CCC(c2noc(-c3ccccc3)n2)C1` (centres undefined), 775 s; in that of `O=C(Cc1cccs1)NCc1nnnn1-c1ccc(F)c(F)c1`, 711 s.
Regarding `O=C(C1CCCN(c2nnc(-n3cccc3)s2)C1)N1CCN(c2ccccc2)CC1` (centres undefined), the RP-LC retention time stood at 931 s.
Take `O=C(NOCC(O)CO)c1cc(Br)c(F)c(F)c1Nc1ccc(I)cc1F` (centres undefined): the RP-LC retention time was determined as 879 s.
The value for `CCN1c2ccc(F)cc2C(=O)NC12CCN(C(=O)Cc1ccc(OC)cc1)CC2` was 784 s; that for `CCn1c(=O)c(-c2noc(C(=O)N3CCN(c4ccccn4)CC3)n2)nn(-c2ccccc2)c1=O` was 691 s.
Take `Cc1cc(=O)n(CC(=O)Nc2ccc(C(F)(F)F)cc2)c(N2CCOCC2)n1`: the RP-LC retention time worked out at 759 s.
Regarding `CC(C)OCCCNC(=O)c1ccc2c(c1)CCCN2S(C)(=O)=O`, the RP-LC retention time was found to be 767 s.
In the case of `Cc1ccc(S(=O)(=O)NC2CCN(c3ncnc4c3CCC4)C2)cc1` (centres undefined) it was 628 s; in that of `Cc1sc(NC(=O)c2ccccc2)c(C(=O)NCCN(C)C)c1C`, 677 s.
In the case of `O=C(C1CCN(c2nc3ccc(-c4cccs4)nc3s2)CC1)N1CCCCC1` it was 911 s; in that of `O=C(NC1CC(=O)N(Cc2ccccc2)C1)c1ccco1` (centres undefined), 667 s.
The value for `O=C(NCCc1ccc(Cl)cc1)c1nnc(-c2ccc(S(=O)(=O)N3CCCC3)cc2)o1` was 1010 s; that for `COc1ccc(N2CCN(C(=O)c3cc4c(-c5cccs5)nn(-c5ccccc5)c4n3C)CC2)cc1` was 1120 s.
Compound `CCn1c(=O)sc2cc(S(=O)(=O)N3CCC(C(=O)Nc4cc(C)ccn4)CC3)ccc21` showed an RP-LC retention time of 702 s.
With `CCc1cccc(NC(=O)C2CCN(S(=O)(=O)c3ccc4c(c3)CC(C)N4C(C)=O)CC2)c1` (centres undefined), the RP-LC retention time amounted to 942 s.
In the case of `CCOC(=O)C1CCN(C(=O)c2ccc3ccnc(N4CCN(c5ccc(F)cc5)CC4)c3c2)CC1` it was 814 s; in that of `Cc1ccc(C(=O)NCc2cnoc2-c2ccc(F)cc2)cn1`, 665 s.
The value for `O=C(NCc1ccco1)N1c2ccccc2CC1c1nc(C2CC2)no1` (centres undefined) was 891 s; that for `CCc1ccc2[nH]c3c(c(=O)c2c1)CN(CC(=O)NCc1ccc2c(c1)OCO2)CC3` was 624 s.
In the case of `Cc1ccc(-c2cc(N3CCOCC3)c3cc(NC(=O)NC4CCCCC4)ccc3n2)cc1` it was 787 s; in that of `Cc1cccc(NC(=O)C2CCCN(S(=O)(=O)c3cn(C(C)C)cn3)C2)c1` (centres undefined), 803 s.
Consider `CCN1C(=O)c2cccnc2Sc2cc(NC(=O)c3cc(C)ccc3C)ccc21`, for which the RP-LC retention time was 898 s.
The value for `Cc1ccc(S(=O)(=O)N2CCC(n3cnnc3C)CC2)cc1Cl` was 736 s.
In the case of `Cc1nc2cc(-c3noc(CCc4ccccc4)n3)ccc2o1` it was 1050 s.
In the case of `Cn1nc(-c2ccncc2)nc1C1CN(S(=O)(=O)c2cccc(C(F)(F)F)c2)C1` it was 715 s; in that of `CN(C)CCn1nnc2cc(-c3noc(-c4ccc(Br)cc4)n3)ccc21`, 727 s.
The compound `CCCCn1cc(S(=O)(=O)Nc2ccc(C)cc2)c2cccnc21` came in with an RP-LC retention time of 943 s.
The value for `Cn1cc(-c2cc3n(n2)CCC(=O)N3CC(=O)N2CCN(c3ccccn3)CC2)c2ccccc21` was 626 s; that for `Cc1ccc(S(=O)(=O)Nc2ccc(-c3cn4ccc(C)nc4n3)cc2)c(C)c1` was 679 s.
In the case of `CN1CCCC1c1nc(C2CN(S(=O)(=O)c3ccc(C#N)cc3)C2)no1` (centres undefined) it was 602 s; in that of `Cc1ccc(CNC(=O)CN2CCN(Cc3ccc(F)cc3)C2=O)o1`, 766 s.
The value for `COc1ccc(Oc2ncc(-c3ccc(C(=O)NC4CC4)cc3)cn2)cc1` was 774 s; that for `CCOc1ncccc1CNC(=O)c1sccc1C` was 822 s.
Turning to `Cc1ccc(C2CC(=O)c3cnc(N4CCN(c5ccccc5)CC4)nc3C2)cc1` (centres undefined), the RP-LC retention time turned out to be 1340 s.
The value for `CSc1ncccc1-c1nnc(C)o1` was 712 s; that for `COc1cccc(N2CCN(S(=O)(=O)c3cc(-c4nc(C)cs4)cs3)CC2)c1` was 1070 s.
In the case of `Cc1ccc(-n2c(=O)n(CC(=O)NCCN3CCOCC3)c3cccnc32)cc1` it was 596 s; in that of `COc1nc2ccccc2nc1N1CCCC(C(=O)Nc2ccc(Cl)cc2)C1` (centres undefined), 1240 s.
The value for `CCOC(=O)CNC(=O)N1CCc2c(c(C(=O)N3CCCC3)nn2C)C1` was 637 s; that for `Cc1ccc(C)c(S(=O)(=O)N2CCC(C)(C(=O)NCc3ccccc3C)CC2)c1` was 1050 s.
Turning to `CCc1c(C(=O)O)nnn1-c1ccc2c(c1)CCC2`, the RP-LC retention time stood at 796 s.
In the case of `CCc1onc(C)c1C1CCCN1C(=O)c1c(Cl)cnn1CC` (centres undefined) it was 773 s; in that of `COc1ccc2c(c1)C13CCN(C)C(C2)C1CCC1(C3)OCCO1` (centres undefined), 645 s.
In the case of `O=C(c1ccoc1)N1CC(F)(F)C[C@H]1c1nnc(-c2ccncc2)o1`, the RP-LC retention time was 668 s.
In the case of `CCn1c(=O)c(N2CCN(C(=O)NCCCOC)CC2)nc2ccccc21` it was 727 s.
The value for `O=C(CSc1ncnc2c1nnn2Cc1ccccc1)Nc1ccc2c(c1)OCCO2` was 830 s; that for `Cc1csc(-c2ccc(CNC(=O)c3cccnc3)cc2)n1` was 672 s.
As to `Cc1ccn2cc(-c3cccc(S(=O)(=O)N4CC(C)CC(C)C4)c3)nc2c1` (centres undefined), the RP-LC retention time was 784 s.
Take `CN1C(=O)C(C)(C(=O)NCc2ccc(Br)cc2)Oc2cccnc21` (centres undefined): the RP-LC retention time came to 837 s.
The value for `O=C(NCCc1c[nH]c2ccc(Cl)cc12)c1cccc(NC(=O)c2nnc(C3CC3)s2)c1` was 928 s; that for `Cc1nc2c(ccc3nc(NC(=O)c4ccc(Cl)s4)sc32)s1` was 986 s.
